Test results: patent publication US6992064B2, “N-alkylglycine trimeres capable of protecting neurons against excitotoxic aggressions and compositions containing such trimeres” (Diverdrugs, S.L., priority 2000, dated 2006)

What was measured:
[1] = test system: ammonium-induced neurotoxicity in mice; assay: Neurotoxicity model in mice induced by injection of high doses of ammonium (death due to NMDA receptor hyperactivation); format: in vivo; details: 0.05–0.1 mg/g intraperitoneal, 10 minutes before 12 mmol/kg ammonium acetate; 24 hours post-injection
Method: A neurotoxicity model was used on mice induced by the injection of high doses of ammonium, the result of which is the death of the animal due to the hyperactivation of the NMDA receptor. The test consists in the intraperitoneal injection in mice of an amount of N-alkylglycine trimere of 0.05–0.1 mg/g, followed, after 10 minutes, with an injection of 12 mmol/kg of ammonium acetate. After 24 hours post-injection, the number of dead mice was determined. The N-alkylglycine trimere identified as compound [24] protected 82% of the mice, whilst the N-alkylglycine trimere identified as compound [23a] protected 100% of the animals.

[2] = test system: primary cultures of rat cerebellum neurones; assay: Neuroprotection of primary cultures of rat cerebellar neurones against excitotoxic aggression (L-glutamate/glycine); format: cell-based; details: for decrease of neuronal death: rat cerebellar neurones, 10 μM glycine, prolonged (≧3 h) L-glutamate, read 24 hours post-aggression; for neuroprotector activity (enantiomers versus racemic mixture): primary cultures of cerebellar neurons, L-glutamate 1 mM
Source text: The neuroprotector mechanism implies, at least in part, the blocking of the glutamate ionotropic receptors, as is made manifest by the inhibition of the ionic current activated by the NMDA type of glutamatergic receptor agonist expressed in X. laevis ovocites (19,20). An important advantage of these biological tests is that they permit the search for neuroprotectors in functionally active systems, increasing the potentiality of its in vivo use.
Two complementary biological tests were used in order to evaluate the biological activity of the N-alkylglycine trimeres obtained in Example 1.1. The first evaluates the efficiency and power with which said compounds block the ionic current activated by agonists in X. laevis ovocites that express the NMDA receptor. The second, determines the neuroprotector efficiency of the N-alklyglycine trimeres in primary cultures of neurones subjected to an excitotoxic aggression, such as prolonged exposure to L-glutamate and glycine.
It was also observed that the N-alkylglycine trimeres tested protected primary neuronal cultures coming from the cerebellum of rats pre-exposed to 10 μM glycine versus the prolonged exposure (≧3 h) of L-glutamate or N-methyl-D-aspartate at a concentration of […]. The test consists of extracting the cerebellar neurones of baby rats, 7–8 days old, cultivating them in plates in a culture medium supplemented with bovine foetal serum (22). After 13–19 days under culture, the excitotoxic aggression with L-glutamate is performed, monitoring the neuronal death in the absence and presence of the N-alkylglycine trimeres 24 hours post-aggression using two fluorescent dyes: the fluorescent diacetate that indicates the number of viable cells, and the propydium iodine that informs of the number of dead cells (23). As an example, the N-alkylglycine trimere identified as compound [1] decreased a 95% of the neuronal death at a concentration of 30 μg/ml; compound [5] an 85% at 30 μg/ml; compound [23a] a 57% at a concentration of 50 μg/ml, and compound [24] a 60% at 50 μg/ml.
On the other hand, due to the fact that some formula I N-alkylglycine trimeres may be presented as stereoisomers, the possibility that the neuroprotector activity of the racemic mixture preferably corresponded to one of the isomers, was evaluated. For this, the neuroprotector activity of the enantiomers identified as [23b] and [23c] was evaluated, (see Table 1) in primary cultures of cerebellar neurons exposed to excitotoxic aggression, such as the incubation with L-glutamate 1 mM comparing it with the neuroprotector activity of a racemic mixture of said enantiomers. […] Likewise, said power was similar to the one presented by the racemic mixture.

Row | Structure (SMILES) | neuroprotector activity (enantiomers versus racemic mixture) [2] | decrease of neuronal death ([2]; 30 μg/ml) [%] | further results
1 | CCC(C)N(CC(N)=O)C(=O)CN(C(=O)CNCCN1CCCC1)C1CC1 (racemic) [compound [23a], [N-[2-(N-pyrrolidinyl)ethyl]glycyl]-[N-(cyclopropyl)glycyl]-N-((R,S)-sec-butyl)glycinamide] |  |  | mice protected from death [1]: 100%; decrease of neuronal death ([2]; 50 μg/ml): 57%
2 | CC[C@@H](C)NC(=O)CN(C(=O)CNCCN1CCCC1)C(=O)CNC1CC1 [[23b], [N-[2-(N-pyrrolidinyl)ethyl]glycyl]-[N-(cyclopropyl)glycyl]-N-((R)-sec-butyl)glycinamide] | neuroprotectors with equal power |  | 
3 | CC[C@H](C)NC(=O)CN(C(=O)CNCCN1CCCC1)C(=O)CNC1CC1 [[23c], [N-[2-(N-pyrrolidinyl)ethyl]glycyl]-[N-(cyclopropyl)glycyl]-N-((S)-sec-butyl)glycinamide] | neuroprotectors with equal power |  | 
4 | CCN(CC)CCCN(CC(=O)N(CCNC(C)=O)CC(N)=O)C(=O)CNCCC(c1ccccc1)c1ccccc1 [compound [1]] [[N-[3,3-diphenylpropyl]glycyl]-[N-[3-(N,N-diethylamine)propyl]glycyl]-N-[2-(methylcarbonylamine)ethyl]glycinamide] |  | 95 | 
5 | CCN(CC)CCCN(CC(=O)N(CCNC(C)=O)CC(N)=O)C(=O)CNCCC(c1ccccc1)c1ccccc1 [compound [5]] [[N-[3,3-diphenylpropyl]glycyl]-[N-[3-N,N-diethylamine)propyl]glycyl]-N-[2-(methylcarbonylamine)ethyl]glycinamide] |  | 85 | 
